These results are taken from patent publication US7049289B1, “Labelled glutamine and lysine analogues” (Amersham PLC, priority 1998, dated 2006).

*1 amine or outer side, *2 acyl side, *3 side chain or, on linkers, in order; H or OH if unused. Glutaryl = O=C(CCCC(=O)[*:2])[*:1]; code Z = not defined here

Test [1] can be described thus: Incorporation into clots induced in a rat model (rat inferior vena cava model). In kind it is in vivo, rat (Male Wistar). Conditions: for % id/g (clot) / Rel. Conc. (cpm/g of clot by dose/g animal): sacrificed after 60 min. Here is the method:
The rats (Male Wistar, 250–350 g) were anaesthetised with 15% urethane. After laparotomy, the vena cava was isolated and freed of surrounding fat tissue. […] The compounds were injected 5 min (fresh clot) and 60 min (aged clot) post-induction. After 60 min the animals were sacrificed and the clot removed, weighed and counted. Other tissues e.g. blood, lung, heart, were also dissected and counted. The uptake of tracer into the clot was determined as the relative concentration (cpm/g of clot by dose/g animal) and clot to background tissue.

Test [2] addresses T1, fibrin (in vitro human plasma clot) (Homo sapiens, UniProt P02671+P02675+P02679).
T1 construct: about 400 μl of human plasma containing the radiolabelled substrate; from tissue; host or cells: human plasma, clotted in vitro with added thrombin and calcium chloride
T1 sequence (P02671 20-644 isoform P02671-2 limits assumed): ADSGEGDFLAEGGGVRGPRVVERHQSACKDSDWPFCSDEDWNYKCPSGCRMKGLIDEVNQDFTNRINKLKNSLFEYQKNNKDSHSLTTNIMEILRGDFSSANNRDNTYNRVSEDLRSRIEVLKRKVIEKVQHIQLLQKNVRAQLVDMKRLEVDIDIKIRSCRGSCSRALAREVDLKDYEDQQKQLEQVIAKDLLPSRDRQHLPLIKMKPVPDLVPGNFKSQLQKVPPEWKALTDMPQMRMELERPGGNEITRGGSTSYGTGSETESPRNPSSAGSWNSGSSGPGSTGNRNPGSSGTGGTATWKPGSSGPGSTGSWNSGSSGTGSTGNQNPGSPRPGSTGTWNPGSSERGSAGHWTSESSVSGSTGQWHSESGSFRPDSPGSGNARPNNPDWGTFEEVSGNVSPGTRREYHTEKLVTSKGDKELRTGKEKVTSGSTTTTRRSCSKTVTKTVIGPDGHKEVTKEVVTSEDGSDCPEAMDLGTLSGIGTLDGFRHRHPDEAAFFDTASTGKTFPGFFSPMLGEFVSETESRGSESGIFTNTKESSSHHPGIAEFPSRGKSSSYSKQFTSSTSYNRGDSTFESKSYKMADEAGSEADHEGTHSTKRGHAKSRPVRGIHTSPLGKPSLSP
T1 sequence (P02675 45-491 limits assumed): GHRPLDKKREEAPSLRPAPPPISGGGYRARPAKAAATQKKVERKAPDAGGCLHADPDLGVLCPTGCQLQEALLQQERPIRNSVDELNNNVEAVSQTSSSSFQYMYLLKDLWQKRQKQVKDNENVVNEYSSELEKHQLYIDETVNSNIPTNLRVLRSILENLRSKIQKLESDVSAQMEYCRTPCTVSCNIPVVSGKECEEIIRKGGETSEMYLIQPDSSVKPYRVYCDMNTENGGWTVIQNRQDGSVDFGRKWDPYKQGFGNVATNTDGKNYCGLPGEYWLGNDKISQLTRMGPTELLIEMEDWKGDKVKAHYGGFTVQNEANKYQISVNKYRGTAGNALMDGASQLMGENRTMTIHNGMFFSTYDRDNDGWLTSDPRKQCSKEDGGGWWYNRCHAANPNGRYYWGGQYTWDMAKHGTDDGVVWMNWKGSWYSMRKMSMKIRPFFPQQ
T1 sequence (P02679 27-437 isoform P02679-2 limits assumed): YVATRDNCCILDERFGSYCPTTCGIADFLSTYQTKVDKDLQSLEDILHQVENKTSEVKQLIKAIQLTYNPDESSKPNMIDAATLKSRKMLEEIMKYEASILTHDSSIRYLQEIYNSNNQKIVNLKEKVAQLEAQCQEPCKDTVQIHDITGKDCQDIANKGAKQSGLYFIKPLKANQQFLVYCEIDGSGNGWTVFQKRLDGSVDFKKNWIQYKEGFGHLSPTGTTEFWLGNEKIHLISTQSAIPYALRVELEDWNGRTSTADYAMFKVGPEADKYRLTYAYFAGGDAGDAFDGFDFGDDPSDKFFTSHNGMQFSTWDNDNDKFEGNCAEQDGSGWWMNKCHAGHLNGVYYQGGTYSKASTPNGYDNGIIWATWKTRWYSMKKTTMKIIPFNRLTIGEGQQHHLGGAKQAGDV
Nature of the test: Incorporation into human plasma clots in vitro. In kind it is biochemical. Conditions: for % specific uptake: % retained (with thrombin) - % retained (no thrombin); for % retained (no thrombin): control without thrombin and calcium chloride (non-specific binding); for % retained (with thrombin): human plasma clot, 60 minutes, ca. 20° C. The protocol: Incorporation of radiolabelled substrates into fibrin was investigated by induction of an in vitro human plasma clot in the following manner. To a siliconised 5 ml glass vial was added, (a) 800 μl of Tris(hydroxymethyl)aminomethane buffered saline pH 7.5 containing calcium chloride (50 mM Tris, 150 mM sodium chloride, 4 mM calcium chloride.), (b) about 40 μl of physiological salt solution containing 100 units of thrombin per ml, (c) about 400 μl of human plasma containing the radiolabelled substrate at a concentration of typically 10 kBq/ml. To aid induction of clot a roughened glass rod was added to the reaction vial. Control vials were prepared similarly but with the omission of thrombin and calcium chloride.
After incubation of the test solution at ambient laboratory temperature (ca. 20° C.) for 60 minutes the reaction was discontinued with the addition of about 400 μl of a cold solution of 33.5 mM ethylenediaminetetra-acetic acid disodium salt. Clots were separated from serum by vacuum filtration onto […] nitrocellulose filters (pre-soaked in 1.5% BSA/tris(hydroxymethyl)aminoethae buffered saline pH 7.5 containing 0.1% Tween 20) and washed with about 2×10 ml of tris(hydroxymethyl)aminomethane buffered saline pH 7.5 containing Tween 20 to a final concentration of 0.1% v/v. The proportion of total radioactivity was calculated by counting in suitable detection apparatus.
The fraction of radioactivity retained on the filter, after subtraction of the non-specific binding determined from the control, is a measure of incorporation into the filtered clots.

Where [3] appears, read: Aged Clots: injected 60 min post-induction.
[4] abbreviates: Fresh Clots: injected 5 min post-induction.

With “Ac-NQEQVSPLTLLKG-Pn216 (also: 99mTc complex) [^99mTc-Cmpd 19]”, in test [1] (Aged Clots), the Clot/blood is 14, the Clot/heart is 13, the Clot/liver is 6 and the Clot/lung is given as 5. For the same substance, in test [1] (setting [3]), the “% id/g (clot)” value came out at 3.2 ± 2.3 % id/g and the “Rel. Conc. (cpm/g of clot by dose/g animal)” value is recorded as 9.1 ± 7.1. In test [1] (Fresh Clots), this substance came in with a Clot/blood of 3, a Clot/heart of 29, a Clot/liver of 17 and a Clot/lung of 7. In test [1] (setting [4]), the “% id/g (clot)” value stood at 2.5 ± 0.3 % id/g and the “Rel. Conc. (cpm/g of clot by dose/g animal)” value came to 7.1 ± 1.2. In test [2], the “% specific uptake” value is listed as 48.0%, the “% retained (no thrombin)” value is recorded as 0.2% and the “% retained (with thrombin)” value was determined as 48.2%.
In the case of “Ac-NQEQ(D-V)(D-S)(D-P)(D-Y)(D-T)(D-L)(D-L)(D-K)G-Pn44 [^99mTc-Cmpd 35]”, in test [1] (Aged Clots), the Clot/blood was determined as 1, the Clot/heart is recorded as 1, the Clot/liver was determined as 2 and the Clot/lung was 0.5. Also, in test [1] (setting [3]), the “% id/g (clot)” value was 0.6 ± 0.1 % id/g and the “Rel. Conc. (cpm/g of clot by dose/g animal)” value amounted to 1.5 ± 0.4. In test [1] (Fresh Clots), this substance displayed a Clot/blood of 2, a Clot/heart of 4, a Clot/liver of 2 and a Clot/lung of 2. In test [1] (setting [4]), the “% id/g (clot)” value is 1.2 ± 0.2 % id/g and the “Rel. Conc. (cpm/g of clot by dose/g animal)” value was found to be 3.7 ± 0.8. Moreover, in test [2], the “% specific uptake” value is reported as 15.3%, the “% retained (no thrombin)” value is reported as 0.6% and the “% retained (with thrombin)” value is listed as 15.9%.
For “Z-NQEQVSPYAAAAG-Pn216 ({code Z}-NQEQVSPYAAAAG-Pn216; reading uncertain; also: 99mTc complex, printed as Z-NQEQVSPYAAAAG-Pn216) [^99mTc-Cmpd 42]”, in test [1] (Aged Clots), the Clot/blood was 5, the Clot/heart stood at 21, the Clot/liver is 6 and the Clot/lung came out at 7. Moreover, in test [1] (setting [3]), the “% id/g (clot)” value worked out at 0.4 ± 0.1 % id/g and the “Rel. Conc. (cpm/g of clot by dose/g animal)” value is on record as 1.3 ± 0.3. In test [1] (Fresh Clots), this substance showed a Clot/blood of 2, a Clot/heart of 1, a Clot/liver of 63 and a Clot/lung of 0.3. Further, in test [1] (setting [4]), the “% id/g (clot)” value was 0.3 ± 0.1 % id/g and the “Rel. Conc. (cpm/g of clot by dose/g animal)” value was found to be 0.3 ± 0.2. Moreover, in test [2], the “% specific uptake” value was determined as 14.0%, the “% retained (no thrombin)” value is recorded as 0.2% and the “% retained (with thrombin)” value stood at 14.2%.
In test [1] (Aged Clots), “Z-NQEQVSPYTLLKG-Pn216 ({code Z}-NQEQVSPYTLLKG-Pn216; reading uncertain; also: 99mTc complex, printed as Z-NQEQVSPYTLLKG-Pn216) [^99mTc-Cmpd 8]” showed a Clot/blood of 10, a Clot/heart of 24, a Clot/liver of 16 and a Clot/lung of 9. In addition, in test [1] (setting [3]), the “% id/g (clot)” value was determined as 5.3 ± 1.3 % id/g and the “Rel. Conc. (cpm/g of clot by dose/g animal)” value is 16.4 ± 4.3. Moreover, in test [1] (Fresh Clots), the Clot/blood came to 14, the Clot/heart came to 41, the Clot/liver is 21 and the Clot/lung was found to be 18. In test [1] (setting [4]), the “% id/g (clot)” value is 6.7 ± 1.7 % id/g and the “Rel. Conc. (cpm/g of clot by dose/g animal)” value is listed as 21.0 ± 6.8. Moreover, in test [2], the “% specific uptake” value is on record as 24.5%, the “% retained (no thrombin)” value is 1.4% and the “% retained (with thrombin)” value is 25.9%.
In test [1] (Aged Clots), “Ac-NQEQVSP(D-Y)TLL(D-K)βAla-Pn216 [^99mTc-Cmpd 33]” gave a Clot/blood of 16, a Clot/heart of 24, a Clot/liver of 16 and a Clot/lung of 9. Besides, in test [1] (setting [3]), the “% id/g (clot)” value is 2.2 ± 0.6 % id/g and the “Rel. Conc. (cpm/g of clot by dose/g animal)” value is recorded as 6.7 ± 1.6. In test [1] (Fresh Clots), the Clot/blood was 11, the Clot/heart came out at 32, the Clot/liver is 28 and the Clot/lung turned out to be 16. Besides, in test [1] (setting [4]), the “% id/g (clot)” value was found to be 2.7 ± 0.2 % id/g and the “Rel. Conc. (cpm/g of clot by dose/g animal)” value was found to be 7.8 ± 0.6. Besides, in test [2], the “% specific uptake” value was found to be 63.8%, the “% retained (no thrombin)” value was determined as 0.1% and the “% retained (with thrombin)” value is 63.9%.
In test [1] (Aged Clots), “Ac-NQEQVSP(I-Y)TLLKG-Pn216 [^99mTc-Cmpd 22]” returned a Clot/blood of 11, a Clot/heart of 3, a Clot/liver of 4 and a Clot/lung of 1. Moreover, in test [1] (setting [3]), the “% id/g (clot)” value worked out at 6.9 ± 2.5 % id/g and the “Rel. Conc. (cpm/g of clot by dose/g animal)” value is given as 22.7 ± 7.4. Also, in test [1] (Fresh Clots), the Clot/blood turned out to be 11, the Clot/heart was 28, the Clot/liver is given as 25 and the Clot/lung worked out at 13. Also, in test [1] (setting [4]), the “% id/g (clot)” value came out at 3.8 ± 1.6 % id/g and the “Rel. Conc. (cpm/g of clot by dose/g animal)” value is 13.0 ± 5.5. Moreover, in test [2], the “% specific uptake” value was found to be 58.7%, the “% retained (no thrombin)” value stood at 0.3% and the “% retained (with thrombin)” value stood at 59.0%.
In test [1] (Aged Clots), “Pn216-CO(CH2)3CO-NQEQVSPYTLLKG-NH2 ({Pn216-Glutaryl}-NQEQVSPYTLLKG-NH2; also: 99mTc complex) [^99mTc-Cmpd 39]” registered a Clot/blood of 15, a Clot/heart of 43, a Clot/liver of 11 and a Clot/lung of 12. In test [1] (setting [3]), the “% id/g (clot)” value was 2.4 ± 0.3 % id/g and the “Rel. Conc. (cpm/g of clot by dose/g animal)” value worked out at 8.2 ± 1.1. In test [1] (Fresh Clots), this substance displayed a Clot/blood of 9, a Clot/heart of 29, a Clot/liver of 31 and a Clot/lung of 14. In addition, in test [1] (setting [4]), the “% id/g (clot)” value turned out to be 2.5 ± 0.3 % id/g and the “Rel. Conc. (cpm/g of clot by dose/g animal)” value is reported as 9.0 ± 1.1. Moreover, in test [2], the “% specific uptake” value is reported as 23.0%, the “% retained (no thrombin)” value was 0.1% and the “% retained (with thrombin)” value came out at 23.1%.
